Among the data in ChEMBL document CHEMBL1926526, “Mefloquine-oxazolidine derivatives, derived from mefloquine and arenecarbaldehydes: In vitro activity including against the multidrug-resistant tuberculosis strain T113” (Bioorg Med Chem, 2012) are MIC, Ratio and viability values, retold here.

In data set [1] the test system is Mycobacterium tuberculosis. Nature of the data set: Antimycobacterial activity against Mycobacterium tuberculosis H37Rv ATCC 27294 by alamar blue assay. Type of data set: functional.
The subject of data set [2] is Mycobacterium tuberculosis. In words: Ratio of mefloquine MIC to compound MIC for Mycobacterium tuberculosis H37Rv ATCC 27294 by alamar blue assay. Type of data set: functional.
Data set [3] in a line: Cytotoxicity against mouse macrophages assessed as cell viability at 100 uM after 18 hrs by MTT assay. Type of data set: cell-based, Macrophage. The conditions noted are these: read-out: Activity.
Data set [4] is described as follows: Cytotoxicity against mouse macrophages assessed as cell viability at 10 uM after 18 hrs by MTT assay. The conditions noted are these: read-out: Activity. The data set is classed as cell-based, Macrophage.
A short description of data set [5]: Cytotoxicity against mouse macrophages assessed as cell viability at 1 uM after 18 hrs by MTT assay. Conditions: read-out: Activity. The data set is classed as cell-based, Macrophage.

`COc1cccc(C2O[C@@H](c3cc(C(F)(F)F)nc4c(C(F)(F)F)cccc34)[C@H]3CCCCN23)c1OC` (mixture of isomers) gave an MIC in data set [1] of 11.9 µM. Moreover, the Ratio in data set [2] was 2.8. In data set [3], the viability at 18 h, 100 µM amounted to 100%. The viability at 18 h, 10 µM in data set [4] came out at 100%. Further, in data set [5], the viability at 18 h, 1 µM was determined as 100%.
`FC(F)(F)c1cc([C@@H]2OC(c3ccc(Cl)cc3Cl)N3CCCC[C@H]23)c2cccc(C(F)(F)F)c2n1` (mixture of isomers) returned an MIC in data set [1] of over 250 µM. In data set [3], the viability at 18 h, 100 µM amounted to 98%. The viability at 18 h, 10 µM in data set [4] was 100%. Moreover, the viability at 18 h, 1 µM in data set [5] came out at 100%.
Consider `FC(F)(F)c1cc([C@@H]2OC(c3ccc(Cl)c(Cl)c3)N3CCCC[C@H]23)c2cccc(C(F)(F)F)c2n1` (mixture of isomers), for which, in data set [1], the minimal inhibitory concentration (MIC) is over 250 µM. Further, the viability at 18 h, 100 µM in data set [3] turned out to be 100%. The viability at 18 h, 10 µM in data set [4] came out at 100%. For the same compound, the viability at 18 h, 1 µM in data set [5] was 100%.
For the compound `FC(F)(F)c1cc([C@@H]2OC(c3c(Cl)cccc3Cl)N3CCCC[C@H]23)c2cccc(C(F)(F)F)c2n1` (mixture of isomers), the MIC in data set [1] is over 250 µM. The viability at 18 h, 100 µM in data set [3] was determined as 59%. In addition, the viability at 18 h, 10 µM in data set [4] was 92%. Besides, the viability at 18 h, 1 µM in data set [5] was determined as 93%.
For `FC(F)(F)c1cc([C@@H]2OC(c3ncc[nH]3)N3CCCC[C@H]23)c2cccc(C(F)(F)F)c2n1` (mixture of isomers) the same measures were 27.4 µM, 100%, 100% and 100%.
Take `OC(c1cc(C(F)(F)F)nc2c(C(F)(F)F)cccc12)C1CCCCN1` (stereo not given) [MEFLOQUINE]: the viability at 18 h, 100 µM in data set [3] stood at 70%. Moreover, the viability at 18 h, 10 µM in data set [4] turned out to be 81%. Further, the viability at 18 h, 1 µM in data set [5] worked out at 95%.
The compound `O=[N+]([O-])c1ccc(C2O[C@@H](c3cc(C(F)(F)F)nc4c(C(F)(F)F)cccc34)[C@H]3CCCCN23)s1` (mixture of isomers) showed an MIC in data set [1] of 12.1 µM. Further, in data set [2], the Ratio is reported as 2.7. Also, the viability at 18 h, 100 µM in data set [3] came out at 100%. The viability at 18 h, 10 µM in data set [4] was found to be 100%. The viability at 18 h, 1 µM in data set [5] was found to be 100%.
In data set [1], `FC(F)(F)c1cc([C@@H]2OC(c3cccc(Cl)c3Cl)N3CCCC[C@H]23)c2cccc(C(F)(F)F)c2n1` (mixture of isomers) came in with an MIC of over 250 µM. In addition, in data set [3], the viability at 18 h, 100 µM is 100%. Moreover, the viability at 18 h, 10 µM in data set [4] came to 100%. Moreover, the viability at 18 h, 1 µM in data set [5] came out at 100%.
In turn, `CCOc1cccc(C2O[C@@H](c3cc(C(F)(F)F)nc4c(C(F)(F)F)cccc34)[C@H]3CCCCN23)c1` (mixture of isomers) had an MIC in data set [1] of 24.5 µM. In addition, in data set [3], the viability at 18 h, 100 µM was 95%. Also, the viability at 18 h, 10 µM in data set [4] worked out at 100%. The viability at 18 h, 1 µM in data set [5] is 100%.
`O=[N+]([O-])c1ccc(C2O[C@@H](c3cc(C(F)(F)F)nc4c(C(F)(F)F)cccc34)[C@H]3CCCCN23)o1` (mixture of isomers): 99.8 µM was the least that counted as inhibitory in data set [1] (MIC). Further, the viability at 18 h, 100 µM in data set [3] worked out at 100%. The viability at 18 h, 10 µM in data set [4] came to 100%. Moreover, in data set [5], the viability at 18 h, 1 µM came to 100%.
In data set [1], `COc1cc(C2O[C@@H](c3cc(C(F)(F)F)nc4c(C(F)(F)F)cccc34)[C@H]3CCCCN23)cc(OC)c1OC` (mixture of isomers) displayed a minimum inhibitory concentration (MIC) of 22.5 µM. Also, the viability at 18 h, 100 µM in data set [3] turned out to be 97%. In addition, the viability at 18 h, 10 µM in data set [4] stood at 100%. Further, in data set [5], the viability at 18 h, 1 µM was found to be 100%.
